Data from PMC5039586, “Biofilms from Klebsiella pneumoniae: Matrix Polysaccharide Structure and Interactions with Antimicrobial Peptides” (Microorganisms, 2016).
Ends that are not written are not given here.

Legend:
KpTs113 [1] = experiment: Peptide uptake by flow cytometry with Trypan Blue quenching; type: cell-based, Klebsiella pneumoniae; details: KpTs113, 0.25 µM peptide, 10 min, 37 °C, 1 mg/mL TB
Procedure: Flow cytometric assays were performed with a Cytomics FC 500 instrument (Beckman-Coulter, Inc., Fullerton, CA, USA) equipped with an argon laser (488 nm, 5 mW) and photomultiplier tube fluorescence detectors. Filtered light wavelength was set at 610 nm for Propidium Iodide (PI) (Sigma, Saint Louis, MO, USA) detection and at 525 nm for BODIPY (BY) detection. All detectors were set on logarithmic amplification. Optical and electronic noise were eliminated by setting an electronic gating threshold on the forward scattering detector, while the flow rate was kept at a data rate below 300 events/second to avoid cell coincidence. For each sample, at least 10,000 events were acquired and stored as list mode files. For the uptake evaluation, cultures of mid-log phase bacteria, diluted to 1 × 10^6 CFU/mL in MHB, were incubated at 37 °C for 10 min with 0.25 µM Bac7(1–35)-BY; after incubation, treated bacterial cells were washed three times in buffered high salt solution (10 mM sodium phosphate, 400 mM NaCl, 10 mM MgCl2, pH 7.2) in order to remove the fraction of peptide bound to the cell surfaces, and immediately analysed by the flow cytometer with or without a 10 min pre-incubation at room temperature with 1 mg/mL of the quencher Trypan Blue (TB).

KpTs101 biofilm = experiment: Biofilm susceptibility assay (BIC), sessile cells on peg lids; type: cell-based, Klebsiella pneumoniae; details: sessile KpTs101, 24 h with peptide, then 6 h regrowth, OD590 < 0.05
KpTs109 biofilm = details: 24 h
ATCC 700603 biofilm = details: ATCC 700603, 24 h
KpMn7 biofilm = details: 24 h
KpTs101 [2] = type: cell-based, Klebsiella pneumoniae; details: 24 h
Procedure: (§1) Minimum inhibitory concentration (MIC) determinations were carried out in MHB on mid-log phase bacteria (1–5 × 10^5 CFU/mL, CFU: colony-forming units) as previously described. […] Data are reported in Table 2 (Ps column) together with MIC and BIC values from Table 1 for an easy comparison. […] To further investigate this protection mechanism, we then determined if the matrix polysaccharide interacted with the helical AMP BMAP-27 by monitoring its effect on peptide structure, using circular dichroism.

KpTs113 [3] = type: cell-based, Klebsiella pneumoniae; details: 24 h
Procedure: as §1

KpTs109 = type: cell-based, Klebsiella pneumoniae; details: 24 h
Procedure: (§2) The bacterial inoculum was incubated overnight in MHB with shaking, then diluted 1:30 in fresh MHB and incubated with shaking for approximately 2 h to the mid-log phase, before resuspending to the appropriate dose, according to the optical density (OD). Minimum inhibitory concentration (MIC) determinations were carried out in MHB on mid-log phase bacteria (1–5 × 10^5 CFU/mL, CFU: colony-forming units) as previously described.

KpTs107 = type: cell-based, Klebsiella pneumoniae; details: 24 h
Procedure: as §2

KpMn7 = type: cell-based, Klebsiella pneumoniae; details: 24 h
Procedure: as §2

KpTs12 = type: cell-based, Klebsiella pneumoniae; details: 24 h
Procedure: as §2

KpTs101 [4] = type: cell-based, Klebsiella pneumoniae; details: 24 h; remark: listed apart in the source
Procedure: as §2

ATCC 700603 = type: cell-based, Klebsiella pneumoniae; details: ATCC 700603, 24 h
Procedure: as §2

KpTs113 [5] = type: cell-based, Klebsiella pneumoniae; details: 24 h; remark: listed apart in the source
Procedure: as §2

KpTs12 biofilm = details: 24 h
KpTs113 biofilm = experiment: Biofilm susceptibility assay (BIC), sessile cells on peg lids; type: cell-based, Klebsiella pneumoniae; details: sessile KpTs113, 24 h with peptide, then 6 h regrowth, OD590 < 0.05
KpTs107 biofilm = details: 24 h

Bac7(1–35)-BY: BODIPY fluorescently labelled derivative of Bac7(1–35) (RRIRPRPPRLPRPRPRPLPFPRPGPRPIPRPLPFP; also: BODIPY label, position not given here; UniProt P19661 131-165, looked up, fragment)
quenching of cell fluorescence by Trypan Blue (uptake) (KpTs113 [1]): < 10%

GRFKRFRKKFKKLFKKLSPVIPLLHL-NH2 [BMAP-27]
BIC (biofilm inhibitory concentration) (KpTs101 biofilm): >64 µM | BIC (biofilm inhibitory concentration) (KpTs109 biofilm): 32 µM | BIC (biofilm inhibitory concentration) (ATCC 700603 biofilm): 64 µM | BIC (biofilm inhibitory concentration) (KpMn7 biofilm): 64 µM | Ps, MIC in the presence of matrix polysaccharide (KpTs101 [2]): 64 µM | Ps, MIC in the presence of matrix polysaccharide (KpTs113 [3]): 64 µM | MIC (KpTs109): 4 µM | MIC (KpTs107): 4 µM | MIC (KpMn7): 4 µM | MIC (KpTs12): 4 µM | MIC (KpTs101 [4]): 2 µM | MIC (ATCC 700603): 4 µM | MIC (KpTs113 [5]): 2 µM | BIC (biofilm inhibitory concentration) (KpTs12 biofilm): 16 µM | BIC (biofilm inhibitory concentration) (KpTs113 biofilm): >64 µM | BIC (biofilm inhibitory concentration) (KpTs107 biofilm): >64 µM

RRIRPRPPRLPRPRPRPLPFPRPGPRPIPRPLPFP [Bac7(1–35)]
BIC (biofilm inhibitory concentration) (KpTs101 biofilm): 64 µM | BIC (biofilm inhibitory concentration) (KpTs109 biofilm): 32 µM | BIC (biofilm inhibitory concentration) (ATCC 700603 biofilm): 32 µM | BIC (biofilm inhibitory concentration) (KpMn7 biofilm): 32 µM | Ps, MIC in the presence of matrix polysaccharide (KpTs101 [2]): 32 µM | Ps, MIC in the presence of matrix polysaccharide (KpTs113 [3]): 32 µM | MIC (KpTs109): 4 µM | MIC (KpTs107): 4 µM | MIC (KpMn7): 4 µM | MIC (KpTs12): 4 µM | MIC (KpTs101 [4]): 2 µM | MIC (ATCC 700603): 4 µM | MIC (KpTs113 [5]): 2 µM | BIC (biofilm inhibitory concentration) (KpTs12 biofilm): 8 µM | BIC (biofilm inhibitory concentration) (KpTs113 biofilm): 64 µM | BIC (biofilm inhibitory concentration) (KpTs107 biofilm): 16 µM
